One series deals with human DAT (Homo sapiens, UniProt Q01959). As to the kind of experiment: DAT transporter inhibitory activity test (neurotransmitter transporter uptake assay kit). The class given is cell-based.
A short description of series [1]: Human liver microsome assay (metabolic stability). Format: in vitro ADME. To be noted: pH 7.4; human liver microsomes 0.2 mg/mL, 1 μM test drug, NADPH, 37° C.; read-out: Half-life (t1/2, min). The method in brief:
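Human liver microsomes 0.2 mg/mL with 1 μM compound, 3.0 mM MgCl2 and 2.0 mM NADPH in 0.1 M phosphate pH 7.4, 37 °C; sampled at 0–60 min. LC-MS/MS peak-area ratio to internal standard; T1/2 and CLint from slope of ln residual versus time.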

Results on one compound are retold here after patent US20260174739A1 (priority 2022, published 2026).

Each structure is given as a SMILES string.

A word on the IC50: it is the concentration that gives 50% inhibition. High values mean a need for much substance, low ones inhibition by little substance.

Chain of human DAT (Q01959 whole entry): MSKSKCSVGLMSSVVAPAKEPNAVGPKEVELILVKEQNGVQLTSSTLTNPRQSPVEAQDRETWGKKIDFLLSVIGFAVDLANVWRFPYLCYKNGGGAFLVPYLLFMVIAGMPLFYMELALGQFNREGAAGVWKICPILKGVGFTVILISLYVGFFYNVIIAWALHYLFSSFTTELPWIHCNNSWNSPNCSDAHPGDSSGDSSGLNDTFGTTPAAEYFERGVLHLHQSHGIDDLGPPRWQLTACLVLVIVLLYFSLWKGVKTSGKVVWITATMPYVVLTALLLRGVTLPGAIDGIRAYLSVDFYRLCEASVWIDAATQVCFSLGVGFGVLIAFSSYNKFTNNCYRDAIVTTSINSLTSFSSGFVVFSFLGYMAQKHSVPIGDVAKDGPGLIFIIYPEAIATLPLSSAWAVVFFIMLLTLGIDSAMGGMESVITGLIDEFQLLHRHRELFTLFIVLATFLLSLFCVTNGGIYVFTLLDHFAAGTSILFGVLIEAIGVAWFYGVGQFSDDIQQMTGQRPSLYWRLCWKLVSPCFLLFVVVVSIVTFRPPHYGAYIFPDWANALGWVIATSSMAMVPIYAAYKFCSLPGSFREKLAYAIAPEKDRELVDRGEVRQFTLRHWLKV

On human DAT, `CCNC1(c2ccccc2)CCc2nc(N)sc2C1` (racemic) [rac-A5, N^6-ethyl-6-phenyl-4,5,6,7-tetrahydrobenzothiazole-2,6-diamine] showed a concentration for half-maximal inhibition (IC50) of 2000 nM. Moreover, the half-life at 1 μM in series [1] was more than 120 min.
